# Assay results reported in patent US6605628B1, “Method of using 5-(arysulfonyl)-, 5-(arylsulfanyl)-and 5-(arylsulfanyl)thiazolidine-2,4-diones for inhibition of farnesyl-protein transferase” (Wyeth Holdings Corporation, priority 2001, dated 2003).
# pIC50: −log10 of the molar value.
# How the values were obtained:
# FPTase [1] = molecular target: T1, FPTase (Homo sapiens, UniProt P49354+P49356); experiment: in vitro FTase Inhibition Assay, H-Ras used as substrate for farnesylation; type: biochemical; conditions: Table I, read-out: IC50 H-Ras*
# Protocol: (§1) Enzyme test procedure: FPTase inhibition in vitro assay was performed according to James, G. L., Brown, M. S., and Goldstein, J. L., Methods in Enzymology, 1995, 255, 38-46; and Garcia, M. A., et al., J. Biol. Chem., 1993, 268, 18415-18420.
# (§2) Materials—Purified FPTase (Moomaw, J. F. and Casey, P. J., J. Biol. Chem., 1992, 267, 17438-17443), purified His6-Ras, inhibitor compounds at 10 mg/ml or 10 mM in 100% DMSO, ^3H-FPP (50,000 dpm/pmol) Amersham, TCA/SDS (6%/2%), TCA (6%), Glass fiber filters ([…]), vacuum manifold or 96 well filtration plates.
# (§3) Methods—1. Dilute FPTase inhibitors from stock solutions to 2.5× in 2.5% DMSO, 10 mM DTT, 0.5% octyl-B-glucoside. 2. Solution #1 is added to FPTase reaction in a volume of […]. 3. Standard reaction mix, […], contains 50 mM Tris (7.5), 10 mM ZnCl2, 3 mM MgCl2, 20 mM KCl, 5 mM DTT, 0.2% octyl-B-glucoside, 1% DMSO, […] His6-Ras, 10 ng FPTase, and various concentrations of FPTase inhibitors. 4. Incubate for 30-90 min at 25° C. 5. Stop reactions with TCA/SDS (6%/2%), hold at 4° C. for 45-60 min. 6. Filter by manifold or 96 well plate, wash filter 3-5× with TCA (6%). 7. Add scintillant to filters, measure ^3H-FPP incorporation into Ras protein.
# (§4) Analysis of Results—Percent inhibition by test compounds is determined by the following:
# (§5) (cpm from precipitated Ras with test compounds)−(background cpm)×100=% inhibition.
# (§6) (cpm from precipitated Ras without test compounds)−(background cpm)
# FPTase [2] = molecular target: T1, FPTase; experiment: in vitro FTase Inhibition Assay, K-Ras used as substrate for farnesylation; type: biochemical; conditions: Table I
# Protocol: as §1, §2, §3, §4, §5, §6
Compound,pIC50 (FPTase [1]),pIC50 (FPTase [2])
"COc1ccc(S(=O)(=O)C2(CCCC#Cc3cc(NC(=O)OC(C)(C)C)ccc3C)SC(=O)NC2=O)cc1 (single isomer, unassigned; more polar) [Example 223, Enantiomer of (3-{5-[5-(4-Methoxybenzenesulfonyl)-2,4-dioxothiazolidin-5-yl]pent-1-ynyl}-4-methylphenyl)carbamic Acid tert-Butyl Ester (More Polar)]",7.20,< 6.00
"COc1ccc(S(=O)(=O)C2(CCCC#Cc3ccc([N+](=O)[O-])cc3C)SC(=O)NC2=O)cc1 (stereo not shown) [Example 130, 5-(4-Methoxybenzenesulfonyl)-5-[5-(2-methyl-4-nitrophenyl)-pent-4-ynyl]-thiazolidine-2,4-dione]",7.25 to 7.64,6.00 to 6.49
"O=C1NC(=O)C(CCCC#Cc2cc(Cl)ccc2Cl)(S(=O)(=O)c2ccc(I)cc2)S1 (stereo not shown) [Example 115, 5-[5-(2,5-Dichloro-phenyl)pent-4-ynyl]-5-(4-iodobenzenesulfonyl)-thiazolidine-2,4-dione]",6.49 to 7.92,6.64 to 6.80
"CCCCOC(=O)Nc1ccc(C)c(C#CCCCC2(S(=O)(=O)c3ccc(OC)cc3)SC(=O)NC2=O)c1 (stereo not shown) [Example 181, (3-(5-[5-(4-Methoxybenzenesulfonyl)-2,4-dioxothiazolidin-5-yl]pent-1-ynyl}-4-methylphenyl)carbamic Acid Butyl Ester]",7.49 to 8.00,6.89 to 7.00
"COc1ccc(S(=O)(=O)C2(CCCC#Cc3cc(NC(=O)OC(C)C)ccc3C)SC(=O)NC2=O)cc1 (stereo not shown) [Example 179, (3-(5-[5-(4-Methoxybenzenesulfonyl)-2,4-dioxothiazolidin-5-yl]pent-1-ynyl}-4-methylphenyl)carbamic Acid Isopropyl Ester]",7.49 to 8.70,7.15 to 8.30
"COc1ccc(S(=O)(=O)C2(CCCC#Cc3cc(NC(=O)OCc4ccccc4)ccc3C)SC(=O)NC2=O)cc1 (stereo not shown) [Example 175, (3-{5-[5-(4-Methoxybenzenesulfonyl)-2,4-dioxothiazolidin-5-yl]pent-1-ynyl}-4-methylphenyl)carbamic Acid Benzyl Ester]",7.49 to 8.00,6.28 to 7.28
"COc1ccc(S(=O)(=O)C2(CCCC#Cc3cc(NC(=O)OCc4ccccc4)ccc3C)SC(=O)N(C(=O)OCc3ccccc3)C2=O)cc1 (stereo not shown) [Example 226, Benzyl 5-[5-(5-{[(benzyloxy)carbonyl]-amino}-2-methylphenyl)pent-4-ynyl]-5-[(4-methoxyphenyl)sulfonyl]-2,4-dioxo-1,3-thiazolidine-3-carboxylate]",7.30 to 7.52,5.49 to 7.00
"5-(4-Iodobenzenesulfonyl)-5-[5-(2-methyl-4-nitrophenyl)pent-4-ynyl]-thiazolidine-2,4-dione [Example 131]",7.49 to 8.22,6.51 to 7.10
"COc1ccc(S(=O)(=O)C2(CCCC#Cc3ccc([N+](=O)[O-])cc3OC)SC(=O)NC2=O)cc1 (stereo not shown) [Example 132, 5-(4-Methoxybenzenesulfonyl)-5-[5-(2-methoxy-4-nitrophenyl)pent-4-ynyl]thiazolidine-2,4-dione]",7.14 to 7.39,6.00 to 6.68
"COc1ccc(S(=O)(=O)C2(CCCC#Cc3ccc(NC(=O)OC(C)(C)C)cc3C(F)(F)F)SC(=O)NC2=O)cc1 (stereo not shown) [Example 151, (4-{5-[5-(4-Methoxybenzenesulfonyl)-2,4-dioxothiazolidin-5-yl]pent-1-ynyl}-3-trifluoromethylphenyl)-carbamic Acid tert-Butyl Ester]",6.15 to 6.28,6.00 to 6.68
"COC(=O)Nc1ccc(C)c(C#CCCCC2(S(=O)(=O)c3ccc(OC)cc3)SC(=O)N(C(=O)OC)C2=O)c1 (stereo not shown) [Example 228, Methyl 5-(5-{5-[(methoxycarbonyl)amino]-2-methylphenyl}pent-4-ynyl)-5-[(4-methoxyphenyl)sulfonyl]-2,4-dioxo-1,3-thiazolidine-3-carboxylate]",7.15 to 8.40,6.00 to 6.64
"COc1ccc(S(=O)(=O)C2(CCCC#Cc3cc([N+](=O)[O-])ccc3OC)SC(=O)NC2=O)cc1 (stereo not shown) [Example 123, 5-(4-Methoxybenzenesulfonyl)-5-[5-(2-methoxy-5-nitrophenyl)pent-4-ynyl]thiazolidine-2,4-dione]",7.09 to 7.10,5.55 to 6.00
"COc1ccc(S(=O)(=O)C2(CCCC#Cc3cc(NC(=O)OCC(C)(C)C)ccc3C)SC(=O)N(C(=O)OCC(C)(C)C)C2=O)cc1 (stereo not shown) [Example 230, Neopentyl 5-[(4-methoxyphenyl)sulfonyl]-5-[5-(2-methyl-5-{[(neopentyloxy)carbonyl]-amino}phenyl)pent-4-ynyl]-2,4-dioxo-1,3-thiazolidine-3-carboxylate]",8.46 to 8.52,6.30 to 7.70
"COc1ccc(S(=O)(=O)C2(CCCC#Cc3cc(NC(=O)OCC(C)C)ccc3C)SC(=O)NC2=O)cc1 (stereo not shown) [Example 182, (3-{5-(5-(4-Methoxybenzenesulfonyl)-2 ,4-dioxothiazolidin-5-yl]pent-1-ynyl}-4-methylphenyl)carbamic Acid Isobutyl]",8.00 to 8.30,7.25 to 7.49
"COc1ccc(S(=O)(=O)C2(CCCC#Cc3cc(NC(=O)OCC(C)(C)C)ccc3C)SC(=O)NC2=O)cc1 (stereo not shown) [Example 180, (3-(5-[5-(4-Methoxybenzenesulfonyl)-2,4-dixothiazolidin-5-yl]pent-1-ynyl}-4-methylphenyl)carbamic Acid Neopentyl Ester]",7.49 to 8.70,7.05 to 8.15
"COc1ccc(S(=O)(=O)C2(CCCC#Cc3cc(NC(=O)OC(C)C)ccc3C)SC(=O)N(C(=O)OC(C)C)C2=O)cc1 (stereo not shown) [Example 229, Isopropyl 5-(5-{5-[(isopropoxycarbonyl)-amino]-2-methylphenyl}pent-4-ynyl)-5-[(4-methoxyphenyl)sulfonyl]-2,4-dioxo-1,3-thiazolidine-3-carboxylate]",7.70 to 8.22,6.15 to 7.00
"COc1ccc(S(=O)(=O)C2(CCCC#Cc3ccc(Br)cc3C)SC(=O)NC2=O)cc1 (stereo not shown) [Example 143, 5-[5-(4-Bromo-2-methy-phenyl)pent-4-ynyl]-5-(4-methoxybenzene-sulfonyl)-thiazolidine-2,4-dione]",7.52,6.07
"COc1ccc(S(=O)(=O)C2(CC#Cc3ccc(-c4ccccc4)cc3)SC(=O)NC2=O)cc1 (stereo not shown) [Example 171, 5-(3-Biphenyl-4-yl-prop-2-ynyl)-5-(4-methoxybenzenesulfonyl)-thiazolidine-2,4-dione]",6.70,5.48
"COc1ccc(S(=O)(=O)C2(CCCC#Cc3cc(NC(=O)Oc4ccc(Cl)cc4)ccc3C)SC(=O)NC2=O)cc1 (stereo not shown) [Example 177, (3-{5-[5-(4-Methoxybenzenesulfonyl)-2,4-dioxothiazolidin-5-yl]pent-1-ynyl}-4-methylphenyl)carbamic Acid 4-Chloro-phenyl Ester]",7.49 to 7.96,7.00 to 7.07
"COc1ccc(S(=O)(=O)C2(CCCC#Cc3cccc(N)c3)SC(=O)NC2=O)cc1 (stereo not shown) [Example 220, 5-[5-(3-Aminophenyl)pent-4-ynyl]-5-(4-methoxybenzenesulfonyl)-thiazolidine-2,4-dione]",7.05,5.52
"COc1ccc(S(=O)(=O)C2(CCCC#Cc3cc([N+](=O)[O-])ccc3C)SC(=O)NC2=O)cc1 (stereo not shown) [Example 122, 5-(4-Methoxybenzenesulfonyl)-5-[5-(2-methyl-5-nitrophenyl)pent-4-ynyl]thiazolidine-2,4-dione]",7.30 to 7.52,6.00 to 6.64
"COc1ccc(S(=O)(=O)C2(CCCC#Cc3ccc(NC(=O)OC(C)(C)C)cc3C)SC(=O)NC2=O)cc1 (stereo not shown) [Example 149, (4-{5-[5-(4-Methoxybenzenesulfonyl)-2,4-dioxo-thiazolidin-5-yl)pent-1-ynyl}-3-methylphenyl)carbamic Acid tert-Butyl Ester]",6.30 to 6.35,5.31 to 6.00
"CCCCOC(=O)Nc1ccc(C)c(C#CCCCC2(S(=O)(=O)c3ccc(OC)cc3)SC(=O)N(C(=O)OCCCC)C2=O)c1 (stereo not shown) [Example 231, Butyl 5-(5-{5-[(butoxycarbonyl)amino]-2-methylphenyl}pent-4-ynyl)-5-[(4-methoxy-phenyl)sulfonyl]-2,4-dioxo-1,3-thiazolidine-3-carboxylate]",7.68 to 8.00,6.00 to 7.00
"COc1ccc(S(=O)(=O)C2(CCCC#Cc3ccc(NC(=O)OC(C)(C)C)cc3)SC(=O)NC2=O)cc1 (stereo not shown) [Example 145, (4-{5-[5-(4-Methoxybenzensulfonyl)-2,4-dioxothiazolidin-5-yl)pent-1-ynyl}phenyl)carbamic Acid tert-Butyl Ester]",5.77 to 5.92,5.00 to 5.25
"COc1ccc(S(=O)(=O)C2(CCCC#Cc3ccc(Cl)cc3)SC(=O)NC2=O)cc1 (stereo not shown) [Example 97, 5-[5-(4-Chlorophenyl)pent4-ynyl]-5-(4-methoxyphenylsulfonyl)-thiazolidine-2,4-dione]",6.82 to 7.12,5.26 to 5.46
"Cc1ccc(S(=O)(=O)C2(CCC/C=C\c3ccc(Cl)cc3)SC(=O)NC2=O)cc1 (stereo not shown) [Example 217, 5-[(4Z)-5-(4-Chloro-phenyl)pent-4-enyl]-5-(toluene-4-sulfonyl)-thiazolidine-2,4-dione]",7.00,5.07
